From patent US20230295201A1 (Gilead Sciences, Inc., priority 2020, published 2023)
pEC50: −log10 of the molar value. Like-named read-outs stand apart in the source and are kept apart here.

Columns and labels:
Assay type in all cases: cell-based
DENV2 replicon = experiment: DENV-2 Huh-7 Rep EC50 (replicon luminescence); details: Dengue virus, DENV2, Huh-7, 48 h, read-out: DENV-2 Huh-7 Rep EC50
Outline: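 EC50 derived from luminescence dose-response, normalised to DMSO-only 0% inhibition wells, after 1.5 h with EnduRen substrate. Compounds were first exposed for 48 h at 37° C to DENV2 replicon Huh-7 cells (5,000/well).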

HRV16 = HRV16 HELA EC50 (cytopathic effect in H1-HeLa cells)
Outline: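 Read-out is luminescent cell viability (CellTiter-Glo) after 96 h of infection at 33 °C, scaled between uninfected and infected-untreated wells. Before infection with titrated virus, compounds went onto H1-HeLa cells as triplicate 3-fold dilution series.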

RSV A2 = experiment: RSV NHBE EC50 (RSV A2 antiviral assay in normal human bronchial epithelial cells); details: human respiratory syncytial virus, 96 h, NHBE cells, RSV A2, 4 days, read-out: RSV NHBE EC50
RSV strain A2 = experiment: RSV HEp-2 EC50 (infectious cytopathic cell protection assay); details: human respiratory syncytial virus, HEp-2 cells, RSV A2, 4 days, read-out: RSV HEp-2 EC50
Outline: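 Percent inhibition of RSV-induced cytopathic effect came from remaining cell viability (CellTiter-Glo luminescence) after 4 days at 37° C. Compounds in 3-fold serial dilutions were exposed to an infectious mix of titered A2 virus and HEp-2 cells at 50,000/ml, with 0% and 100% inhibition control standards.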

[1] = 96 h, H1-HeLa cells, 33° C., read-out: HRV16 HELA EC50
[2] = H1-HeLa cells, 96 h, 33° C.; read-out: HRV16 HELA EC50

COC(C)(C)COC(=O)[C@H](C)NP(=O)(OC[C@@]1(C#N)O[C@@H](c2ccc3c(N)ncnn23)[C@H](O)[C@@H]1O)Oc1ccccc1 (stereo partly drawn) [Example 164, 2-methoxy-2-methylpropyl ((((2R,3S,4R,5S)-5-(4-aminopyrrolo[2,1-f][1,2,4]triazin-7-yl)-2-cyano-3,4-dihydroxytetrahydrofuran-2-yl)methoxy)(phenoxy)phosphoryl)-L-alaninate]
pEC50 (DENV2 replicon; Huh-7 replicon cells, 48 hours): < 4.30
pEC50 (HRV16; [1]): 5.40
pEC50 (RSV A2; NHBE): 6.14
pEC50 (RSV strain A2; HEp-2, 96 h): 5.91

COC1CCC(OC(=O)[C@H](C)NP(=O)(OC[C@@]2(C#N)O[C@@H](c3ccc4c(N)ncnn34)[C@H](O)[C@@H]2O)Oc2ccccc2)CC1 (stereo partly drawn) [Example 165, 4-methoxycyclohexyl ((((2R,3S,4R,5S)-5-(4-aminopyrrolo[2,1-f][1,2,4]triazin-7-yl)-2-cyano-3,4-dihydroxytetrahydrofuran-2-yl)methoxy)(phenoxy)phosphoryl)alaninate]
pEC50 (DENV2 replicon; Huh-7 replicon cells, 48 hours): < 4.00
pEC50 (HRV16; [1]): 4.95
pEC50 (RSV A2; NHBE): 5.79
pEC50 (RSV strain A2; HEp-2, 96 h): 5.71

N#C[C@]1(COP(=O)(NCCOC(=O)C2CCCCC2)Oc2ccccc2)O[C@@H](c2ccc3c(N)ncnn23)[C@H](O)[C@@H]1O (stereo partly drawn) [Example 166, 2-(((((2R,3S,4R,5S)-5-(4-aminopyrrolo[2,1-f][1,2,4]triazin-7-yl)-2-cyano-3,4-dihydroxytetrahydrofuran-2-yl)methoxy)(phenoxy)phosphoryl)amino)ethyl cyclohexane carboxylate]
pEC50 (DENV2 replicon; Huh-7 replicon cells, 48 hours): 4.66
pEC50 (HRV16; [1]): 6.47
pEC50 (RSV A2; NHBE): 6.20
pEC50 (RSV strain A2; HEp-2, 96 h): 7.08

C=CCO[C@H](COCCCCCCCCCCCCCCCCCC)COP(=O)(O)OC[C@@]1(C#N)O[C@@H](c2ccc3c(N)ncnn23)[C@H](O)[C@@H]1O [Example 167, (R)-2-(allyloxy)-3-(octadecyloxy)propyl (((2R,3S,4R,5S)-5-(4-aminopyrrolo[2,1-f][1,2,4]triazin-7-yl)-2-cyano-3,4-dihydroxytetrahydrofuran-2-yl)methyl) hydrogen phosphate]
pEC50 (DENV2 replicon): < 4.00
pEC50 (HRV16; [2]): 4.92
pEC50 (RSV A2): 6.44
pEC50 (RSV strain A2; 96 h): 6.19

C[C@H](N[P@](=O)(OC[C@@]1(C#N)O[C@@H](c2ccc3c(N)ncnn23)[C@@H]2OC(=O)O[C@@H]21)Oc1ccccc1)C(=O)OC1CCCCC1 [Example 168, cyclohexyl ((S)-(((3aS,4R,6S,6aS)-6-(4-aminopyrrolo[2,1-f][1,2,4]triazin-7-yl)-4-cyano-2-oxotetrahydrofuro[3,4-d][1,3]dioxol-4-yl)methoxy)(phenoxy)phosphoryl)-L-alaninate]
pEC50 (DENV2 replicon; Huh-7 replicon cells, 48 hours): 5.33
pEC50 (HRV16; [1]): 6.80
pEC50 (RSV A2; NHBE): 6.99
pEC50 (RSV strain A2; HEp-2, 96 h): 7.28

C[C@H](NP(=O)(OC[C@@]1(C#N)O[C@@H](c2ccc3c(N)ncnn23)[C@H](O)[C@@H]1O)Oc1ccccc1)C(=O)OC1CCCCCCC1 (stereo partly drawn) [Example 171, cyclooctyl ((((2R,3S,4R,5S)-5-(4-aminopyrrolo[2,1-f][1,2,4]triazin-7-yl)-2-cyano-3,4-dihydroxytetrahydrofuran-2-yl)methoxy)(phenoxy)phosphoryl)-L-alaninate]
pEC50 (DENV2 replicon; Huh-7 replicon cells, 48 hours): 4.50
pEC50 (HRV16; [1]): 6.24
pEC50 (RSV A2; NHBE): 6.43
pEC50 (RSV strain A2; HEp-2, 96 h): 6.66

CC(C)COC(=O)OCCNP(=O)(OC[C@@]1(C#N)O[C@@H](c2ccc3c(N)ncnn23)[C@H](O)[C@@H]1O)Oc1ccccc1 (stereo partly drawn) [Example 177, 2-(((((2R,3S,4R,5S)-5-(4-aminopyrrolo[2,1-f][1,2,4]triazin-7-yl)-2-cyano-3,4-dihydroxytetrahydrofuran-2-yl)methoxy)(phenoxy)phosphoryl)amino)ethyl isobutyl carbonate]
pEC50 (DENV2 replicon; Huh-7 replicon cells, 48 hours): < 4.30
pEC50 (HRV16; [1]): 5.94
pEC50 (RSV A2; NHBE): 5.81
pEC50 (RSV strain A2; HEp-2, 96 h): 6.98

C[C@H](NP(=O)(N[C@@H](C)C(=O)OCC(C)(C)C)OC[C@@]1(C#N)O[C@@H](c2ccc3c(N)ncnn23)[C@H](O)[C@@H]1O)C(=O)OCC(C)(C)C [Example 182]
pEC50 (DENV2 replicon): < 4.30
pEC50 (HRV16; [2]): 5.07
pEC50 (RSV A2): 5.68
pEC50 (RSV strain A2; 96 h): 5.93

C[C@H](NP(=O)(OC[C@@]1(C#N)O[C@@H](c2ccc3c(N)ncnn23)[C@H](O)[C@@H]1O)Oc1ccccc1)C(=O)OC1CCC(C)(C)CC1 (stereo partly drawn) [Example 183, 4,4-dimethylcyclohexyl ((((2R,3S,4R,5S)-5-(4-aminopyrrolo[2,1-f][1,2,4]triazin-7-yl)-2-cyano-3,4-dihydroxytetrahydrofuran-2-yl)methoxy)(phenoxy)phosphoryl)-L-alaninate]
pEC50 (DENV2 replicon; Huh-7 replicon cells, 48 hours): 4.76
pEC50 (HRV16; [1]): 6.76
pEC50 (RSV A2; NHBE): 5.92
pEC50 (RSV strain A2; HEp-2, 96 h): 7.10

CC(=O)N1CCC(OC(=O)C(C)NP(=O)(OC[C@@]2(C#N)O[C@@H](c3ccc4c(N)ncnn34)[C@H](O)[C@@H]2O)Oc2ccccc2)CC1 (stereo partly drawn) [Example 185, 1-acetylpiperidin-4-yl ((((2R,3S,4R,5S)-5-(4-aminopyrrolo[2,1-f][1,2,4]triazin-7-yl)-2-cyano3,4-dihydroxytetrahydrofuran-2-yl)methoxy)(phenoxy)phosphoryl)alaninate]
pEC50 (DENV2 replicon; Huh-7 replicon cells, 48 hours): < 4.00
pEC50 (HRV16; [1]): < 4.10
pEC50 (RSV A2; NHBE): < 5.30
pEC50 (RSV strain A2; HEp-2, 96 h): 5.10

C[C@H](NP(=O)(OC[C@@]1(C#N)O[C@@H](c2ccc3c(N)ncnn23)[C@H](O)[C@@H]1O)Oc1ccccc1)C(=O)O[C@H]1CC[C@H](c2ccccc2)CC1 (stereo partly drawn) [Example 186, trans-4-phenylcyclohexyl ((((2R,3S,4R,5S)-5-(4-aminopyrrolo[2,1-f][1,2,4]triazin-7-yl)-2-cyano-3,4-dihydroxytetrahydrofuran-2-yl)methoxy)(phenoxy)phosphoryl)-L-alaninate]
pEC50 (DENV2 replicon; Huh-7 replicon cells, 48 hours): 4.22
pEC50 (HRV16; [1]): 5.32
pEC50 (RSV A2; NHBE): 7.15
pEC50 (RSV strain A2; HEp-2, 96 h): 5.56

CCCCCCCCCCCCCCCCOCCCNP(=O)(OC[C@@]1(C#N)O[C@@H](c2ccc3c(N)ncnn23)[C@H](O)[C@@H]1O)Oc1ccccc1 (stereo partly drawn) [Example 187, ((2R,3S,4R,5S)-5-(4-aminopyrrolo[2,1-f][1,2,4]triazin-7-yl)-2-cyano-3,4-dihydroxytetrahydrofuran-2-yl)methyl phenyl (3-(hexadecyloxy)propyl)phosphoramidate]
pEC50 (DENV2 replicon; Huh-7 replicon cells, 48 hours): 5.03
pEC50 (HRV16; [1]): 4.69
pEC50 (RSV A2; NHBE): < 5.30
pEC50 (RSV strain A2; HEp-2, 96 h): 5.83

CCCCCCCCCCCCCCCCCCOC[C@H](COC(=O)C(C)NP(=O)(OC[C@@]1(C#N)O[C@@H](c2ccc3c(N)ncnn23)[C@H](O)[C@@H]1O)Oc1ccccc1)OCc1ccccc1 (stereo partly drawn) [Example 190, (R)-2-(benzyloxy)-3-(octadecyloxy)propyl ((((2R,3S,4R,5S)-5-(4-aminopyrrolo[2,1-f][1,2,4]triazin-7-yl)-2-cyano3,4-dihydroxytetrahydrofuran-2-yl)methoxy)(phenoxy)phosphoryl)alaninate]
pEC50 (DENV2 replicon; Huh-7 replicon cells, 48 hours): < 4.00
pEC50 (HRV16; [1]): 5.58
pEC50 (RSV A2; NHBE): 5.69
pEC50 (RSV strain A2; HEp-2, 96 h): 6.87

CCCCCCCCCCCCCCCCCCOC(=O)[C@H](C)NP(=O)(OC[C@@]1(C#N)O[C@@H](c2ccc3c(N)ncnn23)[C@H](O)[C@@H]1O)Oc1ccccc1 (stereo partly drawn) [Example 193, octadecyl ((((2R,3S,4R,5S)-5-(4-aminopyrrolo[2,1-f][1,2,4]triazin-7-yl)-2-cyano-3,4-dihydroxytetrahydrofuran-2-yl)methoxy)(phenoxy)phosphoryl)-L-alaninate]
pEC50 (DENV2 replicon; Huh-7 replicon cells, 48 hours): < 4.30
pEC50 (HRV16; [1]): 6.12
pEC50 (RSV A2; NHBE): 6.33
pEC50 (RSV strain A2; HEp-2, 96 h): 6.61

CCCCCCCCCCCCCCCCOCCCOC(=O)[C@H](C)NP(=O)(OC[C@@]1(C#N)O[C@@H](c2ccc3c(N)ncnn23)[C@H](O)[C@@H]1O)Oc1ccccc1 (stereo partly drawn) [Example 198, 3-(hexadecyloxy)propyl ((((2R,3S,4R,5S)-5-(4-aminopyrrolo[2,1-f][1,2,4]triazin-7-yl)-2-cyano-3,4-dihydroxytetrahydrofuran-2-yl)methoxy)(phenoxy)phosphoryl)alaninate]
pEC50 (DENV2 replicon; Huh-7 replicon cells, 48 hours): 4.41
pEC50 (HRV16; [1]): 6.26
pEC50 (RSV A2; NHBE): 7.43
pEC50 (RSV strain A2; HEp-2, 96 h): 6.21

CCCCCCCCCCCCCCCCOC(=O)[C@H](C)NP(=O)(OC[C@@]1(C#N)O[C@@H](c2ccc3c(N)ncnn23)[C@H](O)[C@@H]1O)Oc1ccccc1 (stereo partly drawn) [Example 199, hexadecyl ((((2R,3S,4R,5S)-5-(4-aminopyrrolo[2,1-f][1,2,4]triazin-7-yl)-2-cyano-3,4-dihydroxytetrahydrofuran-2-yl)methoxy)(phenoxy)phosphoryl)-L-alaninate]
pEC50 (DENV2 replicon; Huh-7 replicon cells, 48 hours): 4.42
pEC50 (HRV16; [1]): 6.13
pEC50 (RSV A2; NHBE): 7.48
pEC50 (RSV strain A2; HEp-2, 96 h): 5.95

CCC(CC)COC(=O)[C@H](C)NP(=O)(N[C@@H](C)C(=O)OCC(C)(C)C)OC[C@@]1(C#N)O[C@@H](c2ccc3c(N)ncnn23)[C@H](O)[C@@H]1O (stereo partly drawn) [Example 200, 2-ethylbutyl ((((2R,3S,4R,5S)-5-(4-aminopyrrolo[2,1-f][1,2,4]triazin-7-yl)-2-cyano-3,4-dihydroxytetrahydrofuran-2-yl)methoxy)(((S)-1-(neopentyloxy)-1-oxopropan-2-yl)amino)phosphoryl)-L-alaninate]
pEC50 (DENV2 replicon): < 4.30
pEC50 (HRV16; [2]): 5.25
pEC50 (RSV A2): 6.90
pEC50 (RSV strain A2; 96 h): 5.85
